Laboratory results as given in ChEMBL document CHEMBL2321862, “Development and evaluation of novel phosphotyrosine mimetic inhibitors targeting the Src homology 2 domain of signaling lymphocytic activation molecule (SLAM) associated protein” (J Med Chem, 2013).
pIC50: −log10 of the molar value. Active and inactive are the calls of the source. Peptide text beside a SMILES is read from it.

Key:
[1] = target: T1, SH2 domain-containing protein 1A (Homo sapiens) (UniProt O60880); test: Inhibition of recombinant 6-His-tagged SLAM associated protein SH2 domain (unknown origin) expressed in Escherichia coli BL21(DE3) binding to biotinyl-KKSLTIpYAQVQK-NH2 attached to NeutrAvidin-coated plates using p-nitrophenyl phosphate as substrate at 100 uM after 1 hr
T1 sequence (whole entry): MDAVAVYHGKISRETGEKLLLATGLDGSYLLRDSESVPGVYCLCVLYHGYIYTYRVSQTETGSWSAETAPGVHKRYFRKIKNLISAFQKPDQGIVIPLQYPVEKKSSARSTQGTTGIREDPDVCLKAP

[2] = target: T1, SH2 domain-containing protein 1A (Homo sapiens); test: Inhibition of recombinant 6-His-tagged SLAM associated protein SH2 domain (unknown origin) expressed in Escherichia coli BL21(DE3) binding to biotinyl-KKSLTIpYAQVQK-NH2 attached to NeutrAvidin-coated plates using p-nitrophenyl phosphate as substrate at 10 uM after 1 hr relative to control
[3] = target: T1, SH2 domain-containing protein 1A (Homo sapiens); test: (§1) Inhibition of recombinant 6-His-tagged SLAM associated protein SH2 domain (unknown origin) expressed in Escherichia coli BL21(DE3) binding to biotinyl-KKSLTIpYAQVQK-NH2 attached to NeutrAvidin-coated plates using p-nitrophenyl phosphate as substrate after 1 hr
[4] = target: T2, SH2 domain-containing protein 1A (Homo sapiens, UniProt O60880); test: as §1
T2 sequence (O60880 whole entry): T1 sequence (whole entry)

[5] = target: T1, SH2 domain-containing protein 1A (Homo sapiens); test: Inhibition of recombinant 6-His-tagged SLAM associated protein SH2 domain (unknown origin) expressed in Escherichia coli BL21(DE3) binding to biotinyl-KKSLTIpYAQVQK-NH2 attached to NeutrAvidin-coated plates using p-nitrophenyl phosphate as substrate up to 1 uM after 1 hr

Row | inhibition [1] | fold change (FC) [2] | inhibition [3] | pIC50 [4] | SMILES | inhibition [5]
1 | Active | 0.73 | Dose-dependent effect | 4.46 | NC(=O)[C@H](Cc1ccccc1)NC(=O)[C@H](Cc1ccc2c(c1)COP(=O)(O)O2)NC(=O)OCC1c2ccccc2-c2ccccc21 | 
2 | Active | 1.1 |  |  | COC(=O)[C@H](Cc1ccc2c(c1)COP(=O)(O)O2)NC(=O)[C@H](CCC(=O)OC(C)(C)C)NC(=O)OCC1c2ccccc2-c2ccccc21 | 
3 | Active | 0.91 |  |  | CSCC[C@H](NC(=O)[C@H](Cc1ccc2c(c1)COP(=O)(O)O2)NC(=O)OCC1c2ccccc2-c2ccccc21)C(N)=O | 
4 | Active | 1.09 |  |  | C[C@H](NC(=O)[C@H](Cc1ccc2c(c1)COP(=O)(O)O2)NC(=O)OCC1c2ccccc2-c2ccccc21)C(N)=O | 
5 | Active | 1.29 |  |  | NC(=O)C[C@H](NC(=O)[C@H](Cc1ccc2c(c1)COP(=O)(O)O2)NC(=O)OCC1c2ccccc2-c2ccccc21)C(N)=O | 
6 | Active | 0.99 |  |  | NC(=O)CC[C@H](NC(=O)[C@H](Cc1ccc2c(c1)COP(=O)(O)O2)NC(=O)OCC1c2ccccc2-c2ccccc21)C(N)=O | 
7 | Active | 0.96 |  |  | COC(=O)[C@H](Cc1ccc2c(c1)COP(=O)(O)O2)NC(=O)[C@H](Cc1ccc(OC(C)(C)C)cc1)NC(=O)OCC1c2ccccc2-c2ccccc21 | 
8 | Active | 1.05 |  |  | NC(=O)[C@@H]1CCCN1C(=O)[C@H](Cc1ccc2c(c1)COP(=O)(O)O2)NC(=O)OCC1c2ccccc2-c2ccccc21 | 
9 | Active | 0.85 |  |  | COC(=O)[C@H](Cc1ccc2c(c1)COP(=O)(O)O2)NC(=O)[C@H](CCCCNC(=O)OC(C)(C)C)NC(=O)OCC1c2ccccc2-c2ccccc21 | 
10 | Active | 1.24 |  |  | CC(C)(C)Oc1ccc(C[C@H](NC(=O)[C@H](Cc2ccc3c(c2)COP(=O)(O)O3)NC(=O)OCC2c3ccccc3-c3ccccc32)C(N)=O)cc1 | 
11 | Active | 0.94 |  |  | N=C(N)NCCC[C@H](NC(=O)[C@H](Cc1ccc2c(c1)COP(=O)(O)O2)NC(=O)OCC1c2ccccc2-c2ccccc21)C(N)=O | 
12 | Active | 1.47 |  |  | CC(C)(C)OC(=O)CC[C@H](NC(=O)[C@H](Cc1ccc2c(c1)COP(=O)(O)O2)NC(=O)OCC1c2ccccc2-c2ccccc21)C(N)=O | 
13 | Active | 0.94 |  |  | COC(=O)[C@H](Cc1ccc2c(c1)COP(=O)(O)O2)NC(=O)[C@H](Cc1c[nH]c2ccccc12)NC(=O)OCC1c2ccccc2-c2ccccc21 | 
14 | Active | 1.31 |  |  | NC(=O)[C@H](CCC(=O)O)NC(=O)[C@H](Cc1ccc2c(c1)COP(=O)(O)O2)NC(=O)OCC1c2ccccc2-c2ccccc21 | 
15 | Active | 0.7 | Dose-dependent effect | 4.47 | CC(C)(C)OC(=O)NCCCC[C@H](NC(=O)[C@H](Cc1ccc2c(c1)COP(=O)(O)O2)NC(=O)OCC1c2ccccc2-c2ccccc21)C(N)=O | 
16 | Active | 1.13 |  |  | C[C@@H](OC(C)(C)C)[C@H](NC(=O)[C@H](Cc1ccc2c(c1)COP(=O)(O)O2)NC(=O)OCC1c2ccccc2-c2ccccc21)C(N)=O | 
17 | Active | 0.99 |  |  | CC(C)C[C@H](NC(=O)[C@H](Cc1ccc2c(c1)COP(=O)(O)O2)NC(=O)OCC1c2ccccc2-c2ccccc21)C(N)=O | 
18 | Active | 1.06 |  |  | COC(=O)[C@H](Cc1ccc2c(c1)COP(=O)(O)O2)NC(=O)[C@H](CC(=O)NC(c1ccccc1)(c1ccccc1)c1ccccc1)NC(=O)OCC1c2ccccc2-c2ccccc21 | 
19 | Active | 0.75 |  |  | COC(=O)[C@H](Cc1ccc2c(c1)COP(=O)(O)O2)NC(=O)[C@H](CCCNC(=N)NS(=O)(=O)c1c(C)c(C)c2c(c1C)CC(C)(C)O2)NC(=O)OCC1c2ccccc2-c2ccccc21 | 
20 | Active | 1.09 |  |  | COC(=O)[C@H](Cc1ccc2c(c1)COP(=O)(O)O2)NC(=O)[C@H](CCC(N)=O)NC(=O)OCC1c2ccccc2-c2ccccc21 | 
21 |  |  | inactive |  | NC(=O)[C@H](CC(=O)O)NC(=O)[C@@H](N)Cc1ccc2c(c1)COP(=O)(O)O2 | 

Row | inhibition [1] | fold change (FC) [2] | inhibition [3] | pIC50 [4] | SMILES | inhibition [5]
22 | Active | 1.07 |  |  | NC(=O)[C@H](CCC(=O)NC(c1ccccc1)(c1ccccc1)c1ccccc1)NC(=O)[C@H](Cc1ccc2c(c1)COP(=O)(O)O2)NC(=O)OCC1c2ccccc2-c2ccccc21 | 
23 | Active | 0.55 | Dose-dependent effect | 4.77 | NC(=O)[C@H](CC(=O)O)NC(=O)[C@H](Cc1ccc2c(c1)COP(=O)(O)O2)NC(=O)OCC1c2ccccc2-c2ccccc21 | 
24 | Active | 0.9 |  |  | COC(=O)[C@H](Cc1ccc2c(c1)COP(=O)(O)O2)NC(=O)[C@H](CC(=O)OC(C)(C)C)NC(=O)OCC1c2ccccc2-c2ccccc21 | 
25 | Active | 1.29 |  |  | COC(=O)[C@H](Cc1ccc2c(c1)COP(=O)(O)O2)NC(=O)[C@@H](NC(=O)OCC1c2ccccc2-c2ccccc21)C(C)C | 
26 | Active | 1.07 |  |  | NC(=O)CNC(=O)[C@H](Cc1ccc2c(c1)COP(=O)(O)O2)NC(=O)OCC1c2ccccc2-c2ccccc21 | 
27 | Active | 1.06 |  |  | COC(=O)[C@H](Cc1ccc2c(c1)COP(=O)(O)O2)NC(=O)[C@H](Cc1cn(C(c2ccccc2)(c2ccccc2)c2ccccc2)cn1)NC(=O)OCC1c2ccccc2-c2ccccc21 | 
28 | Active | 0.91 |  |  | COC(=O)[C@H](Cc1ccc2c(c1)COP(=O)(O)O2)NC(=O)[C@H](CCCNC(=N)N)NC(=O)OCC1c2ccccc2-c2ccccc21 | 
29 | Active | 1.24 |  |  | CC(C)(C)OC(=O)C[C@H](NC(=O)[C@H](Cc1ccc2c(c1)COP(=O)(O)O2)NC(=O)OCC1c2ccccc2-c2ccccc21)C(N)=O | 
30 | Active | 0.81 |  |  | COC(=O)[C@H](Cc1ccc2c(c1)COP(=O)(O)O2)NC(=O)[C@@H]1CCCN1C(=O)OCC1c2ccccc2-c2ccccc21 | 
31 | Active | 0.8 |  |  | COC(=O)[C@H](Cc1ccc2c(c1)COP(=O)(O)O2)NC(=O)[C@H](CC(N)=O)NC(=O)OCC1c2ccccc2-c2ccccc21 | 
32 | Active | 1.03 |  |  | NC(=O)[C@H](CC(=O)NC(c1ccccc1)(c1ccccc1)c1ccccc1)NC(=O)[C@H](Cc1ccc2c(c1)COP(=O)(O)O2)NC(=O)OCC1c2ccccc2-c2ccccc21 | 
33 | Active | 0.85 |  |  | COC(=O)[C@H](Cc1ccc2c(c1)COP(=O)(O)O2)NC(=O)[C@@H](NC(=O)OCC1c2ccccc2-c2ccccc21)[C@@H](C)OC(C)(C)C | 
34 | Active | 0.94 |  |  | Cc1c(C)c(S(=O)(=O)NC(=N)NCCC[C@H](NC(=O)[C@H](Cc2ccc3c(c2)COP(=O)(O)O3)NC(=O)OCC2c3ccccc3-c3ccccc32)C(N)=O)c(C)c2c1OC(C)(C)C2 | 
35 | Active | 1.22 |  |  | NCCCC[C@H](NC(=O)[C@H](Cc1ccc2c(c1)COP(=O)(O)O2)NC(=O)OCC1c2ccccc2-c2ccccc21)C(N)=O | 
36 | Active | 1.27 |  |  | CC(C)(C)OC[C@H](NC(=O)[C@H](Cc1ccc2c(c1)COP(=O)(O)O2)NC(=O)OCC1c2ccccc2-c2ccccc21)C(N)=O | 
37 | Active | 1.09 |  |  | COC(=O)[C@H](Cc1ccc2c(c1)COP(=O)(O)O2)NC(=O)[C@H](Cc1ccc2c(c1)COP(=O)(O)O2)NC(=O)OCC1c2ccccc2-c2ccccc21 | 
38 |  |  |  |  | CC(=O)N[C@@H](CC(=O)O)C(=O)N[C@@H](CC(=O)O)C(=O)N1CCC[C@H]1C(=O)N[C@@H](CO)C(=O)N[C@@H](Cc1ccc(OP(=O)(O)O)cc1)C(=O)N[C@H](C(=O)N[C@@H](CC(N)=O)C(=O)N[C@H](C(=O)N[C@@H](CCC(N)=O)C(N)=O)C(C)C)C(C)C (HELM PEPTIDE1{[ac].D.D.P.S.[O=C([C@H](Cc1ccc(OP(=O)(O)O)cc1)N[*:1])[*:2]].V.N.V.Q.[am]}$$$$V2.0) | inactive
39 | Active | 1.05 |  |  | COC(=O)[C@H](Cc1ccc2c(c1)COP(=O)(O)O2)NC(=O)[C@H](CCCCN)NC(=O)OCC1c2ccccc2-c2ccccc21 | 
40 | Active | 1.05 |  |  | COC(=O)[C@H](Cc1ccc2c(c1)COP(=O)(O)O2)NC(=O)[C@H](Cc1ccc(O)cc1)NC(=O)OCC1c2ccccc2-c2ccccc21 | 
41 | Active | 0.89 |  |  | COC(=O)[C@H](Cc1ccc2c(c1)COP(=O)(O)O2)NC(=O)[C@H](C)NC(=O)OCC1c2ccccc2-c2ccccc21 | 
